From patent US20260248780A1, “PHARMACEUTICAL COMPOSITIONS” (Birdie Biopharmaceuticals, Inc., priority 2017, published 2026)

Assays:
Assay type in all cases: physicochemical
[1] = pKa determination on Sirius T3
Procedure: The mixtures of freebase and acid were stirred at RT for 2.5 days. Clear solutions obtained were slurried at 5° C. overnight to induce precipitation. If the samples were still clear, they would be subjected to evaporation to dryness at RT, in order to maximize the chance of identifying as many crystalline hits as possible. Resulted solids were isolated and analyzed by XRPD.
pKa was determined on Sirius T3 TM according to the manufacturer's instructions and the parameters for pKa test was listed in Table 5-13.

[2] = Physical and chemical (solid-state) stability under 25° C./60% RH and 40° C./75% RH for one week; settings: for Form change: XRPD
Procedure: Physicochemical stability of Type A (807919-05-A) was evaluated under 25° C./60% RH and 40° C./75% RH for one week, and 80° C. (closed) for 24 hours.

[3] = Polymorph screening of freebase Type A (solid form by XRPD)

CCOCc1nc2c(N)nc3ccccc3c2n1CC(C)(C)O [Freebase Type A, 1-[4-amino-2-(ethoxymethyl)imidazo-[4,5-c]-quinolin-1-yl]-2-methylpropan-2-ol]
Type D: Solid Form ([3]; liquid vapor diffusion, RT 6 days: solvent DMAc, anti-solvent MTBE)
7.2: pKa [1]
Type A, C: Crystal Form ([3]; screening summary: Slurry at RT/50° C., 31 experiments) | Crystal Form ([3]; screening summary: Solid Vapor Diffusion, 13 experiments)
100.0%: HPLC Purity % of Initial ([2]; 40° C./75% RH)
Type A + Sample H: Solid Form ([3]; anti-solvent addition: solvent Ethyl lactate, anti-solvent n-heptane)
Type E: Solid Form ([3]; liquid vapor diffusion, RT 6 days: solvent NMP, anti-solvent MTBE)
Type A, B: Crystal Form ([3]; screening summary: Polymer-induced Crystallization, 6 experiments) | Crystal Form ([3]; screening summary: Slow Evaporation, 10 experiments)
Type B: Solid Form ([3]; anti-solvent addition: solvent Acetone, anti-solvent MTBE, no solid at 5° C., then evaporation) | Solid Form ([3]; anti-solvent addition: solvent IBA, anti-solvent Toluene, no solid at 5° C., then evaporation) | Solid Form ([3]; liquid vapor diffusion, RT 6 days: solvent THF, anti-solvent H2O) | Solid Form ([3]; polymer induced crystallization: MeOH, Polymer mixture B) | Solid Form ([3]; slow cooling, then −20° C.: CHCl3/MTBE (1:3)) | Solid Form ([3]; slow evaporation at RT: 2-MeTHF/n-heptane (1:1)) | Solid Form ([3]; slow evaporation at RT: EtOAc)
Type F: Solid Form ([3]; slow cooling, then −20° C.: MEK)
Type A, B, F, G: Crystal Form ([3]; screening summary: Slow Cooling, 10 experiments)
99.28 Area %: HPLC Purity Area % ([2]; 40° C./75% RH)
99.15 Area %: HPLC Purity Area % ([2]; 25° C./60% RH)
Type A~G, sample H: Crystal Form ([3]; screening summary: Total, 100 experiments)
No: Form change ([2]; 25° C./60% RH) | Form change ([2]; 40° C./75% RH)
Type A + B: Solid Form ([3]; anti-solvent addition: solvent 2-MeTHF, anti-solvent n-heptane) | Solid Form ([3]; anti-solvent addition: solvent CHCl3, anti-solvent n-heptane) | Solid Form ([3]; anti-solvent addition: solvent THF, anti-solvent n-heptane) | Solid Form ([3]; liquid vapor diffusion, RT 6 days: solvent CHCl3, anti-solvent Toluene) | Solid Form ([3]; slow cooling, then −20° C.: MIBK) | Solid Form ([3]; slow cooling, then −20° C.: THF/toluene (1:3)) | Solid Form ([3]; slow evaporation at RT: ACN) | Solid Form ([3]; slow evaporation at RT: CHCl3/n-heptane (1:1))
Clear: Solid Form ([3]; anti-solvent addition: solvent DCM, anti-solvent Anisole) | Solid Form ([3]; anti-solvent addition: solvent IPA, anti-solvent H2O, no solid at 5° C., then evaporation) | Solid Form ([3]; liquid vapor diffusion, RT 6 days: solvent Ethyl lactate, anti-solvent MTBE) | Solid Form ([3]; liquid vapor diffusion, RT 6 days: solvent IBA, anti-solvent n-heptane)
Type A: Solid Form ([3]; anti-solvent addition: solvent 1,4-dioxane, anti-solvent Toluene, solids after stirring at 5° C. for 2 days) | Solid Form ([3]; anti-solvent addition: solvent Acetone, anti-solvent H2O, no solid at 5° C., then evaporation) | Solid Form ([3]; anti-solvent addition: solvent CHCl3, anti-solvent MTBE) | Solid Form ([3]; anti-solvent addition: solvent DCM, anti-solvent Toluene) | Solid Form ([3]; anti-solvent addition: solvent DMAc, anti-solvent H2O) | Solid Form ([3]; anti-solvent addition: solvent DMSO, anti-solvent H2O) | Solid Form ([3]; anti-solvent addition: solvent EtOH, anti-solvent n-heptane) | Solid Form ([3]; anti-solvent addition: solvent MeOH, anti-solvent H2O) | Solid Form ([3]; anti-solvent addition: solvent MeOH, anti-solvent MTBE, solids after stirring at 5° C. for 2 days) | Solid Form ([3]; anti-solvent addition: solvent NMP, anti-solvent H2O) | Solid Form ([3]; anti-solvent addition: solvent THF, anti-solvent H2O, no solid at 5° C., then evaporation) | Solid Form ([3]; liquid vapor diffusion, RT 6 days: solvent 2-MeTHF, anti-solvent Toluene) | Solid Form ([3]; liquid vapor diffusion, RT 6 days: solvent Acetone, anti-solvent n-heptane) | Solid Form ([3]; liquid vapor diffusion, RT 6 days: solvent DCM, anti-solvent n-heptane) | Solid Form ([3]; liquid vapor diffusion, RT 6 days: solvent EtOH, anti-solvent H2O) | Solid Form ([3]; polymer induced crystallization: Acetone, Polymer mixture A) | Solid Form ([3]; polymer induced crystallization: Acetone, Polymer mixture B) | Solid Form ([3]; polymer induced crystallization: MeOH, Polymer mixture A) | Solid Form ([3]; polymer induced crystallization: THF, Polymer mixture A) | Solid Form ([3]; polymer induced crystallization: THF, Polymer mixture B) | Solid Form ([3]; slow cooling, then −20° C.: ACN) | Solid Form ([3]; slow cooling, then −20° C.: Acetone/H2O (1:3)) | Solid Form ([3]; slow cooling, then −20° C.: EtOAc) | Solid Form ([3]; slow cooling, then −20° C.: EtOH/n-heptane (1:3)) | Solid Form ([3]; slow cooling, then −20° C.: IPAc) | Solid Form ([3]; slow evaporation at RT: Acetone) | Solid Form ([3]; slow evaporation at RT: DCM) | Solid Form ([3]; slow evaporation at RT: EtOH/H2O (1:1)) | Solid Form ([3]; slow evaporation at RT: IPA) | Solid Form ([3]; slow evaporation at RT: MeOH) | Solid Form ([3]; slow evaporation at RT: THF) | Solid Form ([3]; slurry at 50° C., about 3 days: 2-MeTHF) | Solid Form ([3]; slurry at 50° C., about 3 days: ACN) | Solid Form ([3]; slurry at 50° C., about 3 days: Anisole) | Solid Form ([3]; slurry at 50° C., about 3 days: CHCl3/toluene (1:5)) | Solid Form ([3]; slurry at 50° C., about 3 days: EtOAc) | Solid Form ([3]; slurry at 50° C., about 3 days: H2O) | Solid Form ([3]; slurry at 50° C., about 3 days: IBA) | Solid Form ([3]; slurry at 50° C., about 3 days: IPA) | Solid Form ([3]; slurry at 50° C., about 3 days: IPAc) | Solid Form ([3]; slurry at 50° C., about 3 days: MEK) | Solid Form ([3]; slurry at 50° C., about 3 days: MIBK) | Solid Form ([3]; slurry at 50° C., about 3 days: MeOH/H2O (1:5)) | Solid Form ([3]; slurry at 50° C., about 3 days: THF/n-heptane (1:5)) | Solid Form ([3]; slurry at RT, 3 days: 1,4-dioxane) | Solid Form ([3]; slurry at RT, 3 days: 2-MeTHF) | Solid Form ([3]; slurry at RT, 3 days: ACN) | Solid Form ([3]; slurry at RT, 3 days: Anisole) | Solid Form ([3]; slurry at RT, 3 days: DCM/toluene (1:3)) | Solid Form ([3]; slurry at RT, 3 days: EtOAc) | Solid Form ([3]; slurry at RT, 3 days: IBA) | Solid Form ([3]; slurry at RT, 3 days: IPA) | Solid Form ([3]; slurry at RT, 3 days: IPAc) | Solid Form ([3]; slurry at RT, 3 days: MEK) | Solid Form ([3]; slurry at RT, 3 days: MIBK) | Solid Form ([3]; slurry at RT, 3 days: MeOH/H2O (1:3)) | Solid Form ([3]; slurry at RT, 3 days: THF/n-heptane (1:3)) | Solid Form ([3]; slurry at RT, 3 days: acetone/H2O (aw = 0.2)) | Solid Form ([3]; slurry at RT, 3 days: acetone/H2O (aw = 0.4)) | Solid Form ([3]; slurry at RT, 3 days: acetone/H2O (aw = 0.6)) | Solid Form ([3]; slurry at RT, 3 days: acetone/H2O (aw = 0.8)) | Solid Form ([3]; solid vapor diffusion, RT 7 days: ACN) | Solid Form ([3]; solid vapor diffusion, RT 7 days: Acetone) | Solid Form ([3]; solid vapor diffusion, RT 7 days: CHCl3) | Solid Form ([3]; solid vapor diffusion, RT 7 days: DCM) | Solid Form ([3]; solid vapor diffusion, RT 7 days: DMF) | Solid Form ([3]; solid vapor diffusion, RT 7 days: DMSO) | Solid Form ([3]; solid vapor diffusion, RT 7 days: EtOAc) | Solid Form ([3]; solid vapor diffusion, RT 7 days: EtOH) | Solid Form ([3]; solid vapor diffusion, RT 7 days: H2O) | Solid Form ([3]; solid vapor diffusion, RT 7 days: IPA) | Solid Form ([3]; solid vapor diffusion, RT 7 days: MeOH) | Solid Form ([3]; solid vapor diffusion, RT 7 days: THF)
Type C: Solid Form ([3]; slurry at 50° C., about 3 days: 1,4-dioxane) | Solid Form ([3]; solid vapor diffusion, RT 7 days: 1,4-dioxane)
Type A, B, D, E: Crystal Form ([3]; screening summary: Solution Vapor Diffusion, 10 experiments)
99.8%: HPLC Purity % of Initial ([2]; 25° C./60% RH)
Type A, B, G, sample H: Crystal Form ([3]; screening summary: Anti-solvent Addition, 20 experiments)
Type G: Solid Form ([3]; anti-solvent addition: solvent EtOH, anti-solvent Anisole, no solid at 5° C., then evaporation) | Solid Form ([3]; slow cooling, then −20° C.: Anisole, limited solid, then evaporation at RT)
